Laboratory results: patent US12139520B2 (priority 2020, dated 2024)
Numbered stars: 1 amine (or outer) side, 2 acyl side, 3 side chain; on linkers, the order of the positions; unused ones are H or OH. Bridge positions count the residues as written; N and C are the ends. Peptide text beside a SMILES is read from it. * marks the point of attachment. C20 diacid = O=C(O)CCCCCCCCCCCCCCCCCCC(=O)*; γGlu = O=C(O)[C@H](CCC(=O)[*:2])N[*:1]

biological target: T1, hAMY3 receptor (Homo sapiens, UniProt O60896+P30988); experiment: cAMP assay for in vitro receptor activation, hAMY3-R; format: cell-based; settings: cAMP assay, hAMY3 receptor; read-out: hAMY3R EC50
T1 sequence (P30988 25-474): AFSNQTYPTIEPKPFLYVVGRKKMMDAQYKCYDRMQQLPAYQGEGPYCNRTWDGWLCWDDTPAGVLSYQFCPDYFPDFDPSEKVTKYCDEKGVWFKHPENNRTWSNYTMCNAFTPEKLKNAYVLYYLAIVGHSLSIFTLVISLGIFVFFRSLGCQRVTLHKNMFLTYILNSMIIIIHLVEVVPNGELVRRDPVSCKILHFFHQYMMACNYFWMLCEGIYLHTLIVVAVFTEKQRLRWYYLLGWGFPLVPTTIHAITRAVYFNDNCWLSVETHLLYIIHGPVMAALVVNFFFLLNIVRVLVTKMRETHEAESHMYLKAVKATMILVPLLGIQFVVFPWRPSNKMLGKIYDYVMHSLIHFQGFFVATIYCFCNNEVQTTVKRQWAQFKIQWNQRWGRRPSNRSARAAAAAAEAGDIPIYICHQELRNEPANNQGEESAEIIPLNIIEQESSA
T1 sequence (O60896 24-148 partner): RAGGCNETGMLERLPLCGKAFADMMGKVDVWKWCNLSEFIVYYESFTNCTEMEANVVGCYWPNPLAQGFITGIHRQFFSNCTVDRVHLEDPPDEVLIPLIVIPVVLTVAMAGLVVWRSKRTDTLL
Procedure, shortened: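 Read-out is TR-FRET cAMP signal, recorded one hour after reagent addition, following 30 min room-temperature stimulation of stable hAMY3 cells with graded compound doses in casein/IBMX (0.5 mM) buffer.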

In order of falling EC50:
1. CC[C@H](C)[C@H](NC(=O)[C@H](CCC(N)=O)NC(=O)[C@H](Cc1c[nH]cn1)NC(=O)[C@H](C)NC(=O)[C@H](CC(C)C)NC(=O)[C@H](CCCNC(=N)N)NC(=O)[C@H](CCC(N)=O)NC(=O)[C@@H](NC(=O)[C@@H](NC(=O)[C@@H]1CSSC[C@H](NC(=O)CN)C(=O)N[C@@H](CCCNC(=N)N)C(=O)N[C@@H](Cc2ccccc2)C(=O)NCC(=O)N[C@@H]([C@@H](C)O)C(=O)N1)[C@@H](C)O)C(C)C)C(=O)N[C@@H](Cc1ccc(O)cc1)C(=O)N[C@@H](CCC(N)=O)C(=O)N[C@@H](Cc1ccccc1)C(=O)N[C@H](C(=O)N[C@@H](CC(=O)O)C(=O)N[C@@H](CCCCN)C(=O)N[C@@H](CC(=O)O)C(=O)N[C@@H](CCCCN)C(=O)N[C@@H](CC(=O)O)C(=O)N[C@@H](CC(N)=O)C(=O)N[C@H](C(=O)N[C@@H](C)C(=O)N1CCC[C@H]1C(=O)N[C@@H](CCCNC(=N)N)C(=O)N[C@@H](CO)C(=O)N[C@@H](CCCCN)C(=O)N[C@H](C(=O)NCC(=O)N1CCC[C@H]1C(=O)N[C@@H](CCC(N)=O)C(=O)NCC(=O)N[C@@H](Cc1ccc(O)cc1)C(N)=O)C(C)C)C(C)C)[C@@H](C)O [compound 375] (H-GCRFGTCTVQRLAHQIYQFTDKDKDNVAPRSKVGPQGY-NH2; disulfide 2-7; N-terminus assumed)  0.022 nM
2. CC[C@H](C)[C@H](NC(=O)[C@H](CCC(N)=O)NC(=O)[C@H](CC(N)=O)NC(=O)[C@H](C)NC(=O)[C@H](CC(C)C)NC(=O)[C@H](CCCNC(=N)N)NC(=O)[C@H](CCC(N)=O)NC(=O)[C@@H](NC(=O)[C@@H](NC(=O)[C@@H]1CSSC[C@H](NC(=O)CNC(=O)CC[C@H](NC(=O)CCCCCCCCCCCCCCCCCCC(=O)O)C(=O)O)C(=O)N[C@@H](CCCNC(=N)N)C(=O)N[C@@H](Cc2ccccc2)C(=O)NCC(=O)N[C@@H]([C@@H](C)O)C(=O)N1)[C@@H](C)O)C(C)C)C(=O)N[C@@H](Cc1ccc(O)cc1)C(=O)N[C@@H](CCC(N)=O)C(=O)N[C@@H](Cc1ccccc1)C(=O)N[C@H](C(=O)N[C@@H](CC(=O)O)C(=O)N[C@@H](CCCCN)C(=O)N[C@@H](CC(=O)O)C(=O)N[C@@H](CCCCN)C(=O)N[C@@H](CC(=O)O)C(=O)N[C@@H](CC(N)=O)C(=O)N[C@H](C(=O)N[C@@H](C)C(=O)N1CCC[C@H]1C(=O)N[C@@H](CCCNC(=N)N)C(=O)N[C@H](C(=O)N[C@@H](CC(N)=O)C(=O)N[C@H](C(=O)NCC(=O)N1CCC[C@H]1C(=O)N[C@@H](CCC(N)=O)C(=O)NCC(=O)N[C@@H](Cc1ccc(O)cc1)C(N)=O)C(C)C)[C@@H](C)O)C(C)C)[C@@H](C)O [compound 372] ({C20 diacid-γGlu}-GCRFGTCTVQRLANQIYQFTDKDKDNVAPRTNVGPQGY-NH2; disulfide 2-7)  0.02 nM
3. CC[C@H](C)[C@H](NC(=O)[C@H](CCC(N)=O)NC(=O)[C@H](Cc1c[nH]cn1)NC(=O)[C@H](C)NC(=O)[C@H](CC(C)C)NC(=O)[C@H](CCCNC(=N)N)NC(=O)[C@H](CCC(N)=O)NC(=O)[C@@H](NC(=O)[C@@H](NC(=O)[C@@H]1CSSC[C@H](NC(=O)CN)C(=O)N[C@@H](CCCNC(=N)N)C(=O)N[C@@H](Cc2ccccc2)C(=O)NCC(=O)N[C@@H]([C@@H](C)O)C(=O)N1)[C@@H](C)O)C(C)C)C(=O)N[C@@H](Cc1ccc(O)cc1)C(=O)N[C@@H](CCC(N)=O)C(=O)N[C@@H](Cc1ccccc1)C(=O)N[C@H](C(=O)N[C@@H](CC(=O)O)C(=O)N[C@@H](CCCCN)C(=O)N[C@@H](CC(=O)O)C(=O)N[C@@H](CCCCN)C(=O)N[C@@H](CC(=O)O)C(=O)N[C@@H](CC(N)=O)C(=O)N[C@H](C(=O)N[C@@H](C)C(=O)N1CCC[C@H]1C(=O)N[C@@H](CCCNC(=N)N)C(=O)N[C@H](C(=O)N[C@@H](CCCCN)C(=O)N[C@H](C(=O)N[C@@H](CO)C(=O)N1CCC[C@H]1C(=O)N[C@@H](CC(N)=O)C(=O)NCC(=O)N[C@@H](Cc1ccc(O)cc1)C(N)=O)[C@@H](C)CC)[C@@H](C)O)C(C)C)[C@@H](C)O [compound 371] (H-GCRFGTCTVQRLAHQIYQFTDKDKDNVAPRTKISPNGY-NH2; disulfide 2-7; N-terminus assumed)  0.019 nM
4. CC(C)C[C@H](NC(=O)[C@H](CCCNC(=N)N)NC(=O)[C@H](CCC(N)=O)NC(=O)[C@@H](NC(=O)[C@@H](NC(=O)[C@@H]1CSSC[C@H](NC(=O)CN)C(=O)N[C@@H](CCCNC(=N)N)C(=O)N[C@@H](Cc2ccccc2)C(=O)NCC(=O)N[C@@H]([C@@H](C)O)C(=O)N1)[C@@H](C)O)C(C)C)C(=O)N[C@@H](C)C(=O)N[C@@H](Cc1c[nH]cn1)C(=O)N[C@@H](Cc1ccccc1)C(=O)N[C@@H](CC(C)C)C(=O)N[C@@H](Cc1ccc(O)cc1)C(=O)N[C@@H](CCC(N)=O)C(=O)N[C@@H](Cc1ccccc1)C(=O)N[C@H](C(=O)N[C@@H](CC(=O)O)C(=O)N[C@@H](CCCCN)C(=O)N[C@@H](CC(=O)O)C(=O)N[C@@H](CCCCN)C(=O)N[C@@H](CC(=O)O)C(=O)N[C@@H](CC(N)=O)C(=O)N[C@H](C(=O)N[C@@H](C)C(=O)N1CCC[C@H]1C(=O)N[C@@H](CCCNC(=N)N)C(=O)N[C@H](C(=O)N[C@@H](CCCCN)C(=O)N[C@H](C(=O)NCC(=O)N1CCC[C@H]1C(=O)N[C@@H](CCC(N)=O)C(=O)NCC(=O)N[C@@H](Cc1ccc(O)cc1)C(N)=O)C(C)C)[C@@H](C)O)C(C)C)[C@@H](C)O [compound 369] (H-GCRFGTCTVQRLAHFLYQFTDKDKDNVAPRTKVGPQGY-NH2; disulfide 2-7; N-terminus assumed)  0.017 nM
5. CC[C@H](C)[C@H](NC(=O)[C@H](CCC(N)=O)NC(=O)[C@H](Cc1c[nH]cn1)NC(=O)[C@H](C)NC(=O)[C@H](CC(C)C)NC(=O)[C@H](CCCNC(=N)N)NC(=O)[C@H](CCC(N)=O)NC(=O)[C@@H](NC(=O)[C@@H](NC(=O)[C@@H]1CSSC[C@H](NC(=O)[C@H](CCCCN)NC(=O)CC[C@H](NC(=O)CCCCCCCCCCCCCCCCCCC(=O)O)C(=O)O)C(=O)N[C@@H](CC(N)=O)C(=O)N[C@@H](Cc2ccccc2)C(=O)N[C@@H](C)C(=O)N[C@@H]([C@@H](C)O)C(=O)N1)[C@@H](C)O)C(C)C)C(=O)N[C@@H](Cc1ccc(O)cc1)C(=O)N[C@@H](CCC(N)=O)C(=O)N[C@@H](Cc1ccccc1)C(=O)N[C@H](C(=O)N[C@@H](CC(=O)O)C(=O)N[C@@H](CCCCN)C(=O)N[C@@H](CC(=O)O)C(=O)N[C@@H](CCCCN)C(=O)N[C@@H](CC(=O)O)C(=O)N[C@@H](CC(N)=O)C(=O)N[C@H](C(=O)N[C@@H](C)C(=O)N1CCC[C@H]1C(=O)N[C@@H](CCCNC(=N)N)C(=O)N[C@H](C(=O)N[C@@H](CCC(=O)O)C(=O)N[C@H](C(=O)NCC(=O)N[C@@H](CO)C(=O)N[C@@H](CC(N)=O)C(=O)NCC(=O)N[C@@H](Cc1ccc(O)cc1)C(N)=O)C(C)C)[C@@H](C)O)C(C)C)[C@@H](C)O [compound 370] ({C20 diacid-γGlu}-KCNFATCTVQRLAHQIYQFTDKDKDNVAPRTEVGSNGY-NH2; disulfide 2-7)  0.017 nM
6. CC[C@H](C)[C@H](NC(=O)[C@H](CCC(N)=O)NC(=O)[C@H](Cc1c[nH]cn1)NC(=O)[C@H](C)NC(=O)[C@H](CC(C)C)NC(=O)[C@H](CCCNC(=N)N)NC(=O)[C@H](CCC(N)=O)NC(=O)[C@@H](NC(=O)[C@@H](NC(=O)[C@@H]1CSSC[C@H](NC(=O)CN)C(=O)N[C@@H](CCCNC(=N)N)C(=O)N[C@@H](Cc2ccccc2)C(=O)NCC(=O)N[C@@H]([C@@H](C)O)C(=O)N1)[C@@H](C)O)C(C)C)C(=O)N[C@@H](Cc1ccc(O)cc1)C(=O)N[C@@H](CCC(N)=O)C(=O)N[C@@H](Cc1ccccc1)C(=O)N[C@H](C(=O)N[C@@H](CC(=O)O)C(=O)N[C@@H](CCCCN)C(=O)N[C@@H](CC(=O)O)C(=O)N[C@@H](CCCCN)C(=O)N[C@@H](CC(=O)O)C(=O)N[C@@H](CC(N)=O)C(=O)N[C@H](C(=O)N[C@@H](C)C(=O)N1CCC[C@H]1C(=O)N[C@@H](CCCNC(=N)N)C(=O)N[C@H](C(=O)N[C@@H](CCCCN)C(=O)N[C@H](C(=O)NCC(=O)N1CCC[C@H]1C(=O)N[C@@H](CCC(N)=O)C(=O)NCC(=O)N[C@@H](Cc1ccc(O)cc1)C(N)=O)C(C)C)[C@@H](C)O)C(C)C)[C@@H](C)O [compound 368] (H-GCRFGTCTVQRLAHQIYQFTDKDKDNVAPRTKVGPQGY-NH2; disulfide 2-7; N-terminus assumed)  0.015 nM
7. CC[C@H](C)[C@H](NC(=O)[C@H](CCCCN)NC(=O)[C@@H](NC(=O)[C@H](CCCNC(=N)N)NC(=O)[C@@H]1CCCN1C(=O)[C@H](C)NC(=O)[C@@H](NC(=O)[C@H](CC(N)=O)NC(=O)[C@H](CC(=O)O)NC(=O)[C@H](CCCCN)NC(=O)[C@H](CC(=O)O)NC(=O)[C@H](CCCCN)NC(=O)[C@H](CC(=O)O)NC(=O)[C@@H](NC(=O)[C@H](Cc1ccccc1)NC(=O)[C@H](CCC(N)=O)NC(=O)[C@H](Cc1ccc(O)cc1)NC(=O)[C@@H](NC(=O)[C@H](CCC(N)=O)NC(=O)[C@H](Cc1c[nH]cn1)NC(=O)[C@H](C)NC(=O)[C@H](CC(C)C)NC(=O)[C@H](CCCNC(=N)N)NC(=O)[C@H](CCC(N)=O)NC(=O)[C@@H](NC(=O)[C@@H](NC(=O)[C@@H]1CSSC[C@H](NC(=O)CN)C(=O)N[C@@H](CCCNC(=N)N)C(=O)N[C@@H](Cc2ccccc2)C(=O)NCC(=O)N[C@@H]([C@@H](C)O)C(=O)N1)[C@@H](C)O)C(C)C)[C@@H](C)CC)[C@@H](C)O)C(C)C)[C@@H](C)O)C(=O)NCC(=O)N1CCC[C@H]1C(=O)N[C@@H](CC(N)=O)C(=O)NCC(=O)N[C@@H](Cc1ccc(O)cc1)C(N)=O [compound 367] (H-GCRFGTCTVQRLAHQIYQFTDKDKDNVAPRTKIGPNGY-NH2; disulfide 2-7; N-terminus assumed)  0.014 nM
